Values joined by “and” are separate entries in the source; they are usually repeats but may differ in a detail not shown here. Identical values can stand only once. Like-named read-outs stand apart in the source and are kept apart here.
Columns and labels:
Assay type in all cases: cell-based
[1] = test system: Gaeumannomyces graminis; test: Gaeumannomyces graminis / liquid culture; details: Gaeumannomyces graminis, read-out: observed % activity; for inhibition at 0.2 ppm: 1.001 0.2000 ppm; for inhibition at 0.025 ppm: 1.001 0.0250 ppm; for inhibition at 0.05 ppm: 1.001 0.0500 ppm; for inhibition at 0.1 ppm: 1.001 0.1000 ppm
Experimental: (§1) Mycelia fragments or conidia suspensions of a fungus, prepared either freshly from liquid cultures of the fungus or from cryogenic storage, were directly mixed into nutrient broth. DMSO solutions of the test compound (max. 10 mg/ml) was diluted with 0.025% Tween20 by factor 50 and 10 μl of this solution was pipetted into a microtiter plate (96-well format). The nutrient broth containing the fungal spores/mycelia fragments was then added to give an end concentration of the tested compound. The test plates were incubated in the dark at 24° C. and 96% rh. The inhibition of fungal growth was determined photometrically and visually after 2-4 days, depending on the pathosystem, and percent antifungal activity relative to the untreated check was calculated.
Mycelial fragments of the fungus from cryogenic storage were directly mixed into nutrient broth (PDB potato dextrose broth). After placing a (DMSO) solution of test compound into a microtiter plate (96-well format), the nutrient broth containing the fungal spores was added.

[2] = test system: Monographella nivalis (Microdochium nivale); test: Monographella nivalis (Microdochium nivale) / liquid culture; details: for inhibition at 0.025 ppm: 1.001 0.0250 ppm; for inhibition at 0.05 ppm: 1.001 0.0500 ppm
Experimental: as §1
(§2) Conidia of the fungus from cryogenic storage were directly mixed into nutrient broth (PDB potato dextrose broth). After placing a (DMSO) solution of test compound into a microtiter plate (96-well format), the nutrient broth containing the fungal spores was added.

[3] = test system: Mycosphaerella graminicola (Septoria tritici); test: Mycosphaerella graminicola (Septoria tritici) / liquid culture; details: Zymoseptoria tritici, read-out: observed % activity; for inhibition at 0.0031 ppm: 1.001 0.0031 ppm; for inhibition at 0.0016 ppm: 1.001 0.0016 ppm; for inhibition at 0.0008 ppm: 1.001 0.0008 ppm
Experimental: as §1, §2

[4] = test system: Thanatephorus cucumeris (Rhizoctonia solani); test: Thanatephorus cucumeris (Rhizoctonia solani) / liquid culture; details: for inhibition at 0.1 ppm: 1.001 0.1000 ppm; for inhibition at 0.05 ppm: 1.001 0.0500 ppm
Experimental: as §1
Mycelia fragments of a newly grown liquid culture of the fungus were directly mixed into nutrient broth (PDB potato dextrose broth). After placing a (DMSO) solution of the test compounds into a microtiter plate (96-well format), the nutrient broth containing the fungal material was added.

[5] = Monographella nivalis, B1.3, read-out: observed % activity
[6] = Monographella nivalis, B2.3, read-out: observed % activity
[7] = Monographella nivalis, B5.4, read-out: observed % activity
[8] = Thanatephorus cucumeris, B5.5, read-out: observed % activity

**Q.** How did the inhibition at 0.2 ppm ([1]; B4.1) turn out when `CON(C(=O)c1cn(C)nc1C(F)F)C(C)Cc1c(Cl)cc(Cl)cc1Cl` (stereo not shown) [Compound 1.001, 3-(difluoromethyl)-N-methoxy-1-methyl-N-[1-methyl-2-(2,4,6-trichlorophenyl)ethyl]pyrazole-4-carboxamide] was run?
**A.** 12%

**Q.** And the inhibition at 0.025 ppm ([1]; B5.1)?
**A.** 0%

**Q.** What about the inhibition at 0.05 ppm ([1]; B5.1) of the same molecule?
**A.** 2%

**Q.** What about the inhibition at 0.1 ppm ([1]; B5.1) of the same molecule?
**A.** 0%

**Q.** And the inhibition at 0.2 ppm ([1]; B5.1)?
**A.** 0%

**Q.** And the inhibition at 0.0063 ppm ([1]; B6.1, 1.001 0.0063 ppm)?
**A.** 0%

**Q.** What about the inhibition at 0.025 ppm ([1]; B6.1) of the same molecule?
**A.** 0%

**Q.** What about the inhibition at 0.1 ppm ([1]; B6.1) of the same molecule?
**A.** 0%

**Q.** And the inhibition at 0.0125 ppm ([1]; B9.1, 1.001 0.0125 ppm)?
**A.** 0%

**Q.** What about the inhibition at 0.025 ppm ([1]; B9.1) of the same molecule?
**A.** 0%

**Q.** What about the inhibition at 0.05 ppm ([1]; B9.1) of the same molecule?
**A.** 0%

**Q.** What about the inhibition at 0.1 ppm ([1]; B9.1) of the same molecule?
**A.** 0%

**Q.** And the inhibition at 0.2 ppm ([1]; B9.1)?
**A.** 0%

**Q.** And the observed % activity ([2]; 1.001 0.0016 ppm)?
**A.** 4%

**Q.** What about the observed % activity ([2]; 1.001 0.0031 ppm) of the same molecule?
**A.** 10% and 6%

**Q.** What about the observed % activity ([2]; 1.001 0.0125 ppm) of the same molecule?
**A.** 4%

**Q.** And the observed % activity ([2]; 1.001 0.1000 ppm)?
**A.** 61%

**Q.** And the observed % activity ([2]; 1.001 0.2000 ppm)?
**A.** 90% and 87% and 79%

**Q.** What about the inhibition at 0.004 ppm ([2]; Monographella nivalis, 1.001 0.004 ppm, read-out: observed % activity) of the same molecule?
**A.** 0%

**Q.** And the inhibition at 0.1 ppm ([2]; Monographella nivalis, 1.001 0.1000 ppm (Table B54), read-out: observed % activity)?
**A.** 22%

**Q.** What about the inhibition at 0.1 ppm ([2]; Monographella nivalis, 1.001 0.1000 ppm (Table B55), read-out: observed % activity) of the same molecule?
**A.** 19%

**Q.** What about the inhibition at 0.2 ppm ([2]; Monographella nivalis, 1.001 0.2000 ppm, read-out: observed % activity) of the same molecule?
**A.** 85%

**Q.** What about the inhibition at 0.0125 ppm ([2]; Monographella nivalis, B1.3, 1.001 0.0125 ppm, read-out: observed % activity) of the same molecule?
**A.** 0%

**Q.** And the inhibition at 0.025 ppm [2, 5]?
**A.** 5%

**Q.** And the inhibition at 0.05 ppm [2, 5]?
**A.** 45%

**Q.** What about the inhibition at 0.2 ppm ([2]; Monographella nivalis, B1.3, 1.001 0.2000 ppm, read-out: observed % activity) of the same molecule?
**A.** 78%

**Q.** And the inhibition at 0.025 ppm [2, 6]?
**A.** 0%

**Q.** And the inhibition at 0.05 ppm [2, 6]?
**A.** 26%

**Q.** And the inhibition at 0.0008 ppm ([2]; Monographella nivalis, B3.4, 1.001 0.0008 ppm, read-out: observed % activity)?
**A.** 1%

**Q.** What about the inhibition at 0.05 ppm ([2]; Monographella nivalis, B4.3, read-out: observed % activity) of the same molecule?
**A.** 15%

**Q.** And the inhibition at 0.1 ppm ([2]; Monographella nivalis, B4.3, 1.001 0.1000 ppm, read-out: observed % activity)?
**A.** 64%

**Q.** What about the inhibition at 0.025 ppm [2, 7] of the same molecule?
**A.** 2%

**Q.** What about the inhibition at 0.05 ppm [2, 7] of the same molecule?
**A.** 9%

**Q.** And the inhibition at 0.1 ppm ([2]; Monographella nivalis, B5.4, 1.001 0.1000 ppm, read-out: observed % activity)?
**A.** 60%

**Q.** What about the inhibition at 0.0016 ppm ([2]; Monographella nivalis, B6.3, 1.001 0.0016 ppm, read-out: observed % activity) of the same molecule?
**A.** 0%

**Q.** What about the inhibition at 0.0031 ppm ([2]; Monographella nivalis, B6.3, 1.001 0.0031 ppm, read-out: observed % activity) of the same molecule?
**A.** 3%

**Q.** What about the inhibition at 0.0004 ppm ([3]; 1.001 0.0004 ppm) of the same molecule?
**A.** 9%

**Q.** And the inhibition at 0.0031 ppm [3]?
**A.** 88%

**Q.** What about the inhibition at 0.0016 ppm ([3]; B1.5) of the same molecule?
**A.** 52%

**Q.** And the inhibition at 0.0016 ppm ([3]; B3.5)?
**A.** 42%

**Q.** What about the inhibition at 0.0031 ppm ([3]; B3.5) of the same molecule?
**A.** 83%

**Q.** What about the inhibition at 0.0008 ppm ([3]; B5.6) of the same molecule?
**A.** 27%

**Q.** And the inhibition at 0.0016 ppm ([3]; B5.6)?
**A.** 45%

**Q.** And the inhibition at 0.0031 ppm ([3]; B5.6)?
**A.** 82%

**Q.** And the inhibition at 0.0008 ppm ([3]; B6.4)?
**A.** 11%

**Q.** What about the inhibition at 0.0016 ppm ([3]; B6.4) of the same molecule?
**A.** 53%

**Q.** What about the inhibition at 0.0031 ppm ([3]; B6.4) of the same molecule?
**A.** 89%

**Q.** And the observed % activity ([4]; 1.001 0.0250 ppm)?
**A.** 8%

**Q.** And the inhibition at 0.0031 ppm ([4]; Thanatephorus cucumeris, 1.001 0.0031 ppm, read-out: observed % activity)?
**A.** 5%

**Q.** What about the inhibition at 0.0063 ppm ([4]; Thanatephorus cucumeris, 1.001 0.0063 ppm, read-out: observed % activity) of the same molecule?
**A.** 0%

**Q.** And the inhibition at 0.0125 ppm ([4]; Thanatephorus cucumeris, B1.4, 1.001 0.0125 ppm, read-out: observed % activity)?
**A.** 0%

**Q.** What about the inhibition at 0.025 ppm ([4]; Thanatephorus cucumeris, B1.4, 1.001 0.0250 ppm, read-out: observed % activity) of the same molecule?
**A.** 6%

**Q.** And the inhibition at 0.1 ppm ([4]; Thanatephorus cucumeris, B1.4, read-out: observed % activity)?
**A.** 0%

**Q.** What about the inhibition at 0.025 ppm ([4]; Thanatephorus cucumeris, B5.5, 1.001 0.0250 ppm, read-out: observed % activity) of the same molecule?
**A.** 13%

**Q.** And the inhibition at 0.05 ppm [4, 8]?
**A.** 1%

**Q.** And the inhibition at 0.1 ppm [4, 8]?
**A.** 17%

**Q.** What about the inhibition at 0.05 ppm ([4]; Thanatephorus cucumeris, B9.3, read-out: observed % activity) of the same molecule?
**A.** 0%

**Q.** And the inhibition at 0.2 ppm ([4]; Thanatephorus cucumeris, B9.3, 1.001 0.2000 ppm, read-out: observed % activity)?
**A.** 6%

Reference: patent US10588315B2, “Fungicidal compositions” (Syngenta Participations AG, priority 2012, dated 2020)
